Consider two compounds from patent US20230028441A1, “NOVEL HETEROARYL-TRIAZOLE COMPOUNDS AS PESTICIDES” (Bayer Aktiengesellschaft, priority 2019, published 2023).

Type in all cases: in vivo
Assay [1] deals with adult unfed cat fleas (Ctenocephalides felis). Nature of the assay: Ctenocephalides felis oral test. Particulars: 48 h, 100 ppm in cattle blood, after 2 days. A digest of the protocol: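 About 20 adult unfed Ctenocephalides felis fed through parafilm on cattle blood dosed with compound (DMSO stock diluted in blood), blood chamber at 37°C, fleas at room temperature. Mortality (%) scored after 2 days; 100% means all fleas killed.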

For assay [2], the system named is adult engorged female ticks (Rhipicephalus microplus). Nature of the assay: Rhipicephalus (Boophilus) microplus injection test. Particulars: 168 h, egg deposition after 7 days, read-out: efficacy (infertile eggs); for pest or weed control at 0.004 mg: 4 μg/animal. Summed up: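 Compound was dissolved in DMSO at 10 mg per 0.5 mL and diluted with DMSO to the test concentration. Five engorged adult females received a 1 μL abdominal injection and were kept in a climate chamber. After 7 days, fertile egg deposition was scored, with unclear eggs held until hatching at about 42 days; 100% efficacy means all eggs were infertile.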

Assay [3] concerns green peach aphid (Myzus persicae). Nature of the assay: Myzus persicae oral test. The conditions noted are these: 120 h. A digest of the protocol: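 Compound was dissolved at 1 part by weight in 100 parts acetone, then diluted with water to test concentration and combined with IPL41 insect medium (33%+15% sugar). A mixed aphid population fed on this through a parafilm seal, and mortality (%) was scored after 5 days.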

Assay [4] relates to larvae of the southern green stink bug (Nezara viridula). Nature of the assay: Nezara viridula spray test. The conditions noted are these: in Hordeum vulgare, 96 h. Summed up:
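Barley plants infested with Nezara viridula larvae were sprayed with compound in acetone/dimethylformamide, diluted in water containing 1000 ppm alkylarylpolyglycol ether emulsifier. Mortality (%) was scored after 4 days; 100% means all stink bugs killed.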

Assay [5] has as its system cattle tick larvae (Rhipicephalus microplus), strain Parkhurst, resistant against synthetic pyrethroids. Nature of the assay: Rhipicephalus (Boophilus) microplus in-vitro contact test, larval cattle tick. Particulars: 5 μg/cm^2 (=500 g/ha), after 48 hours, read-out: efficacy (larvae dead or moribund). A digest of the protocol:
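Acetone solutions of compound were coated on glass tube walls (900 ppm giving 5 μg/cm^2) and dried. 20–50 pyrethroid-resistant Parkhurst larvae were held per tube at 27° C and 85% relative humidity; after 48 h negative geotaxis scored efficacy as percent larvae dead or moribund.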

Assay [6] deals with fall armyworm larvae (Spodoptera frugiperda). Nature of the assay: Spodoptera frugiperda spray test (maize leaf sections). The conditions noted are these: 168 h. A digest of the protocol:
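Maize leaf sections were sprayed with compound formulated in acetone/DMF and diluted in water containing 1000 ppm emulsifier. Once dry, sections were infested with fall armyworm larvae. Mortality (%) was scored after 7 days.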

For assay [7], the system named is Musca domestica strain WHO-N. Nature of the assay: Musca domestica test (MUSCDO surface treatment & contact assay). The conditions noted are these: 24 hours after contact, read-out: efficacy (mortality); for mortality at 4 mg/m2: surface concentration 4 mg/m^2, 30 minutes exposure; for mortality at 20 mg/m2: surface concentration 20 mg/m^2, 30 minutes exposure. The procedure:
(§1) Solvent: Aceton+2000 ppm rapeseed oil methyl ester (RME)
In order to produce a sufficient, active ingredient containing solution it is necessary to solve the test compound in the solvent-mix (acetone at 2 mg/ml/RME 2000 ppm). This solution is pipetted onto a glazed tile and after evaporation of the acetone, adult flies of the species Musca domestica strain WHO-N are placed onto the dried surface. The exposure time is 30 minutes. Mortality in percent (%) is determined 24 hours after contact of the insects to the treated surface. 100% mortality means that all tested insects are dead, whereas 0% means that no insect died.

For assay [8], the system named is Aedes aegypti strain MONHEIM. Kind of assay: Aedes aegypti test (AEDSAE surface treatment & contact assay). The conditions noted are these: 24 hours after contact, read-out: efficacy (mortality); for mortality at 4 mg/m2: surface concentration 4 mg/m^2, 30 minutes exposure; for mortality at 20 mg/m2: surface concentration 20 mg/m^2, 30 minutes exposure. As to the method: as §1
In order to produce a sufficient, active ingredient containing solution it is necessary to solve the test compound in the solvent-mix (acetone at 2 mg/ml/RME 2000 ppm). This solution is pipetted onto a glazed tile and after evaporation of the acetone, adult mosquitoes of the species Aedes aegypti strain MONHEIM are placed onto the dried surface. The exposure time is 30 minutes. Mortality in percent (%) is determined 24 hours after contact of the insects to the treated surface. 100% mortality means that all tested insects are dead, whereas 0% means that no insect died.

For assay [9], the system named is brown planthopper (Nilaparvata lugens). Nature of the assay: Nilaparvata lugens spray test. Particulars: in Oryza sativa, 96 h. A digest of the protocol: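 Rice plants (Oryza sativa) sprayed with compound in acetone/DMF diluted in water containing 1000 ppm alkylarylpolyglycol ether emulsifier, then infested with planthoppers. Mortality % scored after 4 days (100% = all killed, 0% = none killed).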

A word on the mortality: it is the percentage killed. On to `CC(NC(=O)c1cc(Cl)cc(C(F)(F)F)c1)c1nc(N)nn1-c1ccc(Cl)cn1` (racemic) [I-006, N-[1-[5-amino-2-(5-chloro-2-pyridyl)-1,2,4-triazol-3-yl]ethyl]-3-chloro-5-(trifluoromethyl)benzamide], for which, in [1], the mortality at 100 ppm came out at 100%. Also, the pest or weed control at 0.004 mg in assay [2] stood at 100%. In assay [2] (20 μg/animal), the pest or weed control at 0.02 mg came out at 100%. The mortality at 4 ppm in assay [3] is 100%. In addition, the mortality at 100 g/ha in [4] and in assay [6] was 100% each time. Moreover, the mortality at 500 g/ha in [4] came to 100%; in [6], 100%; in [9] it was 90%. Moreover, the pest or weed control at 5 µg/cm2 in assay [5] amounted to 100%. For the same compound, the mortality at 4 mg/m2 in assay [7] and in assay [8] was 90 to 100% in each case. Also, the mortality at 20 mg/m2 in [7] and in assay [8] was 90 to 100% throughout.
Regarding `CNc1nc(C(C)NC(=O)c2cc(C(F)(F)F)cc(C(F)(F)F)c2)n(-c2ncccn2)n1` (stereo not shown) [I-088], the mortality at 100 ppm in assay [1] was determined as 100%. For the same compound, in assay [2], the pest or weed control at 0.004 mg was 100%. The compound also registered a mortality at 4 ppm in assay [3] of 100%. Further, the mortality at 100 g/ha in [4], in assay [6] and in assay [9] was 100% each time. For the same compound, the pest or weed control at 5 µg/cm2 in assay [5] turned out to be 100%. Further, the mortality at 4 mg/m2 in assay [7] and in [8] was 90 to 100% in each case. For the same compound, the mortality at 20 mg/m2 in [7] and in assay [8] was 90 to 100% throughout.
